Experiments:
BALB3T3 cells = assay: Cytotoxic test (MTT assay) on Balb3T3 fibroblasts thawed from two-layer frozen 96-well plate; assay type: cell-based; details: 24 h treatment started 24 h post-thawing, 5-Fluorouracil 20, 40, 80, 100 μg/ml, Tamoxifen 0.02, 1.25, 2.5, 5 μM
Experimental: (§1) Balb3T3 (ATCC, LCC Standards) fibroblasts and smooth muscle aortic cells (SMAC, freshly isolated from Sprague Dawley rats, Harlan Laboratories) primary cells were cultured in complete culture medium consisting of endotoxin-free DMEM (Sigma-Aldrich) supplemented with 10% FCS, 100 μg/ml penicillin and 100 IU/ml streptomycin (Sigma-Aldrich). […] The resulting cells were allowed to grow for twelve days prior to cryopresentation. Both cell types were grown in flasks until they were 80% confluent and then harvested. Harvesting took place by incubating cells in 5 ml of PBS with 0.05% EDTA for 2 minutes, and final detachment was achieved by incubation in 0.1% trypsin and 0.05% EDTA for another 5 minutes. Cells were centrifuged at 400×G for 5 minutes. Then, a total of 4.8 ml of a solution at 4° C. containing 50,000 cells/50 μl of freezing 80% DMEM, 10% FCS, 10% DMSO (AppliChem) medium was prepared (cell density determined by haemocytometer), forming the so-called freezing solution. Besides, 100 μl of complete culture medium was disposed in each cell of a 96-well plate and frozen down to −80° C. Once frozen, the plate is recovered and 50 μl/well of the said freezing solution were added on top each well containing 100 μl of complete culture medium already frozen. […] Twenty four hours later a MTT assay was performed and cytotoxicity was calculated according to the absorbance values. […]

Smac cells = assay: Cytotoxic test (MTT assay) on smooth muscle aortic cells (SMAC) thawed from two-layer frozen 96-well plate; assay type: cell-based, rat; details: 24 h treatment started 24 h post-thawing, 5-Fluorouracil 20, 40, 80, 100 μg/ml, Tamoxifen 0.02, 1.25, 2.5, 5 μM
Experimental: as §1

| Structure (SMILES) | cytotoxic response of BALB3T3 cells (BALB3T3 cells) | cytotoxic response of Smac cells (Smac cells) |
| --- | --- | --- |
| CC/C(=C(\c1ccccc1)c1ccc(OCCN(C)C)cc1)c1ccccc1 [Tamoxifen] | Concentration dependent cytotoxic response | Concentration dependent cytotoxic response |
| O=c1[nH]cc(F)c(=O)[nH]1 [5-Fluorouracil] | Concentration dependent cytotoxic response | Concentration dependent cytotoxic response |
